Values after ≈ are worked out from the molar mass of the structure shown. Active and inactive are the calls of the source. The rule behind the calls is not given here.
Tests used:
Format in all cases: functional
Staphylococcus aureus = test: Antibacterial activity against Staphylococcus aureus ATCC 29213 after 24 hrs by broth microdilution method; details: ATCC 29213, 24 h
Bacillus subtilis = test: Antibacterial activity against Bacillus subtilis ATCC 6051 after 24 hrs by broth microdilution method; details: ATCC 6051, 24 h
Escherichia coli = test: Antibacterial activity against Escherichia coli ATCC 25922 after 24 hrs by broth microdilution method
Pseudomonas aeruginosa = test: Antibacterial activity against Pseudomonas aeruginosa ATCC 27853 after 24 hrs by broth microdilution method

| MIC (Staphylococcus aureus) | MIC (Bacillus subtilis) | MIC (Escherichia coli) | MIC (Pseudomonas aeruginosa) | MIC (Escherichia coli; ATCC 25922, 24 h) | MIC (Pseudomonas aeruginosa; ATCC 27853, 24 h) | Structure (SMILES) |
| --- | --- | --- | --- | --- | --- | --- |
| 64 µg/mL (≈ 49.7 µM) | 4 µg/mL (≈ 3.11 µM) | inactive | inactive | – | – | CC[C@H](C)[C@H](NC(=O)[C@@H](Cc1ccccc1)NC)C(=O)N[C@@H](CO)C(=O)N[C@H](CCC(N)=O)C(=O)N[C@@H](C(=O)N[C@H](C(=O)N[C@@H](CO)C(=O)N[C@H]1C(=O)N[C@@H](C)C(=O)N[C@@H](CCN=C(N(C)C)N(C)C)C(=O)N[C@@H]([C@@H](C)CC)C(=O)O[C@H]1C)[C@@H](C)CC)[C@@H](C)CC |
| 2 µg/mL (≈ 1.66 µM) | 2 µg/mL (≈ 1.66 µM) | – | – | 64 µg/mL (≈ 53.2 µM) | 256 µg/mL (≈ 213 µM) | CC[C@H](C)[C@H](NC(=O)[C@@H](Cc1ccccc1)NC)C(=O)N[C@@H](CO)C(=O)N[C@H](CCCCN)C(=O)N[C@@H](C(=O)N[C@H](C(=O)N[C@@H](CO)C(=O)N[C@H]1C(=O)N[C@@H](C)C(=O)N[C@@H](CCCN)C(=O)N[C@@H]([C@@H](C)CC)C(=O)O[C@H]1C)[C@@H](C)CC)[C@@H](C)CC |
